The source of these data is ChEMBL document CHEMBL4229507, “Identification of influenza PA-Nter endonuclease inhibitors using pharmacophore- and docking-based virtual screening” (Bioorg Med Chem, 2018).

The target in experiment [1] is Polymerase acidic protein (Influenza A virus (strain A/X-31 H3N2), UniProt Q9IQ47). Put plainly: (§1) Inhibition of recombinant Influenza A virus (A/X-31(H3N2)) N-terminal 6xHis-tagged PA-Nter (1 to 217 residues) expressed in Escherichia coli BL21-CodonPlus cells using M13mp18 as substrate after 1 hr by ethidium bromide staining-based agarose gel electrophoresis.
Experiment [2] deals with Polymerase acidic protein (Influenza A virus (strain A/X-31 H3N2)) (UniProt Q9IQ47). The experiment is described as §1.
Another experiment deals with Influenza A virus. Put plainly: Antiviral activity against Influenza A virus (A/Puerto Rico/8/1934(H1N1)) infected in MDCK cells after 24 hrs by immunofocus assay. Format: functional, organism-based.
In experiment [3] the test system is unidentified influenza virus. Put plainly: Antiviral activity against Influenza virus assessed as inhibition of viral transcription.

`O=C(C(=O)N1CCC(Cc2ccccc2)CC1)c1c[nH]c2cc(O)c(O)cc12`: the concentration for half-maximal inhibition (IC50) in experiment [1] is 266 µM.
As to `O=C(CCN1CCC(Cc2ccc(F)cc2)CC1)c1c[nH]c2cc(O)c(O)cc12`, the IC50 in experiment [1] came out at 243 µM.
Take `NS(=O)(=O)c1ccc(C(=O)NCCc2ccc(O)c(O)c2)cc1`: the inhibition result in experiment [2] was “Dose-dependent effect”. In experiment [1], the IC50 was 12 µM.
`O=c1[nH]c(-c2ccc(F)cc2)c(-c2ccc(-c3nnn[nH]3)cc2)cc1O` came in with an EC50 in the experiment with Influenza A virus of 11.4 µM.
For `O=C(O)C(=O)CC(=O)c1ccccc1`, the IC50 in experiment [1] was determined as 3.2 µM.
Consider `O=C(O)/C(O)=C/C(=O)C1(Cc2ccc(Cl)cc2)CCN(Cc2ccccc2)CC1`, for which the IC50 in experiment [3] turned out to be 0.43 µM.

One may read the IC50 as the concentration needed to halve the response being measured. What is called EC50 is the concentration that produces a half-maximal response. High values mean lower potency in that assay, low ones higher potency in that assay.
